Values after ≈ are worked out from the molar mass of the structure shown. Where two headings read alike, the source gives them in different places.
Tests used:
[1] = Aerosol testing of BisEDT suspension formulations (aerosol concentration, particle size); format: physicochemical; conditions: Lot # ED268-1-11-01; 25 mg/mL formulation
Text: Objective: The objective of this study was to develop methods for the nose-only inhalation exposures of BisEDT for rodents. The aerosols were generated from suspension formulations of BisEDT in aqueous media (0.5% TWEEN 80® in Sodium Phosphate Buffer, pH 7.4). […] Suspension formulations were created by sonication with neat API with 0.5% TWEEN 80® in Sodium Phosphate Buffer, pH 7.4. This was further refined by adjusting the vehicle to an osmolality of 300 mOsmol/kg. Aerosols were characterized for particle size distribution and aerosol concentration. Aerosol concentration was determined by differential mass and chemical analysis of the aerosol filter samples.
Aerosol Methods: Formulation—Suspension formulations of BisEDT were prepared in 0.5% TWEEN 80® in Sodium Phosphate Buffer, pH 7.4. Suspensions of 2.5, 10, 25, 50, 75 and 100 mg/mL were prepared by sonication with a Covaris sonicator. In later tests, the vehicle was adjusted with sodium chloride to achieve an Osmolality of 300 mOsmol/kg. Suspensions were prepared at 2.5, 50, and 100 mg/mL.
Aerosol concentration was measured at the breathing zone of the exposure system by collection of the aerosol onto 47-mm filters (Whatman GF/A membrane filters). Filter samples were collected at a nominal flowrate of 0.3 L/min. Aerosol mass concentration was determined by differential weight analysis of the filter samples. […]

[2] = test system: S. pneumoniae; experiment: Broth microdilution MIC (Example 11); conditions: Streptococcus pneumoniae
[3] = test system: B. dolosa (cepacia complex); experiment: MIC against CF bacterial strains (Example 5); format: cell-based; conditions: Burkholderia dolosa; strain BC 11, CF isolate, beta lactam-R, TMP/SMX-S, FQ-R
Procedure: (§1) A range of CF-isolated strains of Mycobacterium avium and Mycobacterium abscessus were included; which allows for understanding of the activity against non-tubercular Mycobacteria (NTM). Two distinct bismuth-thiol compounds were evaluated, including BisEDT and BisBDT. […] The CF-isolates of greater clinical relevance, including both M abscessus spp. and Burkholderia spp., were both consistently found to be much more susceptible to BisEDT and BisBDT.

[4] = test system: B. cepacia (cepacia complex); experiment: MIC against CF bacterial strains (Example 5); format: cell-based; conditions: Burkholderia cepacia
Procedure: as §1

[5] = test system: B. cepcacia complex (not further speciated); experiment: MIC against CF bacterial strains (Example 5); format: cell-based; conditions: beta lactam-S, TMP/SMX-S
Procedure: as §1

[6] = test system: B. multivorans (cepacia complex); experiment: MIC against CF bacterial strains (Example 5); format: cell-based; conditions: Burkholderia multivorans
Procedure: as §1

[7] = test system: C. albicans; experiment: Broth microdilution MIC, yeast (Example 11); format: cell-based
[8] = ATCC49619, S. pneumoniae MMX 6837 (ATCC 49619), QC
[9] = S. pneumoniae MMX 880, Lev^R SXT^R CC^R Ery^R Pen^R
[10] = S. pneumoniae MMX 937, Mem^R SXT^R CC^R Ery^R Pen^R
[11] = S. pneumoniae MMX 3959, CC^R Ery^R
[12] = S. pneumoniae MMX 5440, Mem^R SXT^R CC^R Ery^R Pen^R
[13] = S. pneumoniae MMX 5445, Mem^R SXT^R CC^R Ery^R Pen^R
[14] = S. pneumoniae MMX 8133, Mem^R SXT^R CC^R Ery^R Pen^R

| SMILES | BisEDT Aerosol Conc., average of all extracted concentrations incl. outlier filter [1] [µg/L] | MIC [2, 8] [µg/mL] | MIC [2, 9] [µg/mL] | MIC [2, 10] [µg/mL] | MIC [2, 11] [µg/mL] | MIC [2, 12] [µg/mL] | MIC [2, 13] [µg/mL] | MIC [2, 14] [µg/mL] | MIC [3] [µg/mL] | MIC ([4]; strain BC17) [µg/mL] | MIC ([4]; strain BC 17, CF isolate, beta lactam-R, TMP/SMX-R, FQ-R) [µg/mL] | MIC ([5]; strain BC 9, CF isolate, FQ-R) [µg/mL] | MIC ([5]; strain PC 213, CF isolate, FQ-S) [µg/mL] | MIC ([6]; strain BC 5, CF isolate, beta lactam-S, TMP/SMX-S, FQ-I) [µg/mL] | MIC ([6]; strain BC5b) [µg/mL] | MIC ([2]; read-out: MIC values, pneumococci incl. multi-drug resistant) [µg/mL] | MIC ([7]; C. albicans MMX 7055, Sensitive, 48 hr) | MIC ([7]; Candida albicans, 24 h) [µg/mL] | MIC ([7]; Candida albicans, 48 h) [µg/mL] |
| --- | --- | --- | --- | --- | --- | --- | --- | --- | --- | --- | --- | --- | --- | --- | --- | --- | --- | --- | --- |
| C1C[S][Bi]([S]CC[S][Bi]2[S]CC[S]2)[S]1 [BisEDT, bismuth-1,2-ethanedithiol] | 64.4 |  |  |  |  |  |  |  |  |  |  |  |  |  |  |  |  |  |  |
| C[C@@H](O)[C@H]1C(=O)N2C(C(=O)O)=C(S[C@@H]3CN[C@H](C(=O)N(C)C)C3)[C@H](C)[C@H]12 [Meropenem, reference compound] |  | 0.06 (≈ 0.156 µM) | 0.5 (≈ 1.3 µM) | 1 (≈ 2.61 µM) | 0.03 (≈ 0.0782 µM) | 1 (≈ 2.61 µM) | 1 (≈ 2.61 µM) | 1 (≈ 2.61 µM) |  |  |  |  |  |  |  |  |  |  |  |
| CC(S)C(C)S.[Bi] (centres unmarked) [BisBDT, bismuth-2,3-butanedithiol] |  | 0.5 | 0.5 | 8 | 1 | 0.5 | 0.5 | 0.5 | 0.5 | 8 | 4 | 0.5 | 1 | 2 | 1 | 0.5 to 8 | 2, 2 μg/mL | 2 | 2 |

From US11464749B2, “Bismuth-thiol compositions and methods of use” (Microbion Corporation, priority 2018, dated 2022)
